Measured values as given in ChEMBL document CHEMBL6096692, “Discovery of 2(1H)-Quinoxalinone Derivatives as Potent and Selective MAT2A Inhibitors for the Treatment of MTAP-Deficient Cancers” (J Med Chem, 2025).
“And” between values parts separate entries of the source, which are not always exact repeats. Equal values may be shown once. The source made the active and inactive calls. The calls are words filed in the database; no cut-off is given here.

Key:
[1] = molecular target: S-adenosylmethionine synthase isoform type-2 (Homo sapiens, UniProt P31153); assay: Inhibition of MAT2A (unknown origin) using L-methionine and ATP as substrate preincubated with compound for 10 mins followed by substrate addition and measured after 60 mins by kinase-glo max reagent based microplate reader analysis
S-adenosylmethionine synthase isoform type-2, sequence (P31153 whole entry, canonical isoform): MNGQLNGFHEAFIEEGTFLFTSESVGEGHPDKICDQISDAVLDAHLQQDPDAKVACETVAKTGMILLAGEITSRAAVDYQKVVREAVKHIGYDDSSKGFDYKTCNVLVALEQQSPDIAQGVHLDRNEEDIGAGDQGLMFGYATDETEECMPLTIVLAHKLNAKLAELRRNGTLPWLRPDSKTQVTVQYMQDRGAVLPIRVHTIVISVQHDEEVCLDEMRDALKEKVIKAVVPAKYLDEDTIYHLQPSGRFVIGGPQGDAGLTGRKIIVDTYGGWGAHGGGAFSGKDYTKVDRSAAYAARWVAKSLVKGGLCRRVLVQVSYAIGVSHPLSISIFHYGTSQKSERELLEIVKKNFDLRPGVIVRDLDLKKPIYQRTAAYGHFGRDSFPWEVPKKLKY

[2] = test system: B16-F10; assay: Antiproliferative activity against mouse B16-F10 cells harboring wild type MTAP assessed as inhibition of cell viability measured for 96 hrs by SRB assay; assay type: functional, cell-based; settings: B16-F10, 96 h
[3] = test system: B16-F10; assay: Antiproliferative activity against MTAP knockout mouse B16-F10 cells assessed as inhibition of cell viability measured for 96 hrs by SRB assay; assay type: functional, cell-based; settings: B16-F10, 96 h
[4] = Selectivity index, ratio of IC50 for antiproliferative activity against mouse B16-F10 cells harboring wild type MTAP assessed as inhibition of cell viability to IC50 for antiproliferative activity against MTAP knockout mouse B16-F10 cells assessed as inhibition of cell viability; assay type: functional
[5] = test system: SF-126; assay: Induction of DNA damage in human SF-126 cells harboring wild type MTAP assessed as increase in gammaH2AX level at 0.1 to 10 uM measured for 96 hrs by Western blot analysis; assay type: functional, cell-based; settings: dose 0.1-10 µM
[6] = test system: MIA PaCa-2; assay: Antitumor activity against MTAP null human MIA PaCa-2 cells xenografted in mouse assessed as tumor growth inhibition at 30 to 60 mg/kg, po measured after 28 days; assay type: functional, organism-based; settings: dose 30-60 mg/kg, time 28.0 day

## COc1ccc(-n2cc3cnc(NCC(F)(F)F)nc3c(-c3ccc(Br)cc3)c2=O)cc1
[1]
  IC50: 0.0561 µM
[2]
  IC50: 2.15 µM
[3]
  IC50: 0.33 µM
[4]
  Ratio IC50: 6.5
[5]
  Activity: inactive
[6]
  Activity: Active

## O=c1c(-c2ccc3ncoc3c2)nc2ccc(C3CC3)cc2n1-c1ccc(OC(F)F)cc1
[1]
  IC50: 0.0985 µM

## Cn1cc2cc(-c3nc4ccc(C5CC5)cc4n(-c4ccc(OC(F)F)cc4)c3=O)ccc2n1
[1]
  IC50: 0.0792 µM
[2]
  IC50: > 20 µM
[3]
  IC50: 4.36 µM
[4]
  Ratio IC50: >4.6

## Cn1nnc2ccc(-c3nc4ccc(C5CC5)cc4n(-c4ccc(OC(F)F)cc4)c3=O)cc21
[1]
  IC50: 0.0289 µM
[2]
  IC50: 9.07 µM
[3]
  IC50: 1.52 µM
[4]
  Ratio IC50: 3.8

## COc1ccc(-c2nc3cnc(NCC(F)(F)F)nc3n(-c3ccc(Br)cc3)c2=O)cc1
[1]
  IC50: 0.151 µM
[2]
  IC50: > 20 µM
[3]
  IC50: 6.54 µM
[4]
  Ratio IC50: >3.1

## Cn1cnc2ccc(-c3nc4ccc(C5CC5)nc4n(-c4ccc(OC(F)F)cc4)c3=O)cc21
[1]
  IC50: 0.0231 µM
[2]
  IC50: 0.8 µM
[3]
  IC50: 0.21 µM
[4]
  Ratio IC50: 3.8

## O=c1c(-c2ccc3ncccc3c2)nc2cnc(NCC(F)(F)F)nc2n1-c1ccc(OC(F)F)cc1
[1]
  IC50: 0.435 µM

## O=c1c(-c2ccc3ncn(C4CC4)c3c2)nc2cnc(NCC(F)(F)F)nc2n1-c1ccc(OC(F)F)cc1
[1]
  IC50: 0.083 µM
[2]
  IC50: 16.6 µM
[3]
  IC50: 0.4 µM
[4]
  Ratio IC50: 41.4

## Cn1cnc2ccc(-c3nc4ccc(C5CCC5)cc4n(-c4ccc(OC(F)F)cc4)c3=O)cc21
[1]
  IC50: 0.228 µM

## Cn1cnc2ccc(-c3nc4cnc(NCC(F)(F)F)nc4n(-c4ccc(OC(F)F)cc4)c3=O)cc21
[1]
  IC50: 0.0634 µM
[2]
  IC50: > 20 µM
[3]
  IC50: 0.31 µM
[4]
  Ratio IC50: >64.5

## Cn1cnc2ccc(-c3nc4cnc(NC5CC5)nc4n(-c4ccc(OC(F)F)cc4)c3=O)cc21
[1]
  IC50: 0.049 µM

## O=c1c(-c2ccn3nccc3c2)nc2ccc(C3CC3)cc2n1-c1ccc(OC(F)F)cc1
[1]
  IC50: 0.0814 µM
[2]
  IC50: 13.9 µM
[3]
  IC50: 1.34 µM
[4]
  Ratio IC50: 10.4

## CCOc1ccc2nc(-c3ccc4ncn(C)c4c3)c(=O)n(-c3ccc(OC(F)F)cc3)c2c1
[1]
  IC50: 0.104 µM
[2]
  IC50: > 20 µM
[3]
  IC50: 3.08 µM
[4]
  Ratio IC50: >6.5

## O=c1c(-c2ccc3ncnn3c2)nc2ccc(C3CC3)cc2n1-c1ccc(OC(F)F)cc1
[1]
  IC50: 0.115 µM
[2]
  IC50: > 20 µM
[3]
  IC50: 14.3 µM
[4]
  Ratio IC50: >1.4

## O=c1c(-c2ccc3c(c2)CCO3)nc2cnc(NCC(F)(F)F)nc2n1-c1ccc(OC(F)F)cc1
[1]
  IC50: 0.089 µM
[2]
  IC50: > 20 µM
[3]
  IC50: 2.48 µM
[4]
  Ratio IC50: >8.1

## O=c1c(-c2ccc3nccn3c2)nc2ccc(C3CC3)cc2n1-c1ccc(OC(F)F)cc1
[1]
  IC50: 0.0639 µM
[2]
  IC50: > 20 µM
[3]
  IC50: 0.78 µM
[4]
  Ratio IC50: >25.6

## COc1ccc(-c2nc3cnc(NCC(F)(F)F)nc3n(-c3cccc(OC(F)F)c3)c2=O)cc1
[1]
  IC50: > 1 µM

## COc1ccc(-c2nc3cnc(NCC(F)(F)F)nc3n(-c3ccc(OC(F)F)cc3)c2=O)cc1
[1]
  IC50: 0.1 µM
[2]
  IC50: > 20 µM
[3]
  IC50: 3.3 µM
[4]
  Ratio IC50: >6.1

## COc1ccc(-c2nc3cnc(NCC(F)(F)F)nc3n(-c3ccc(Cl)cc3)c2=O)cc1
[1]
  IC50: 0.138 µM
[2]
  IC50: > 20 µM
[3]
  IC50: 9.27 µM
[4]
  Ratio IC50: >2.2

## O=c1c(-c2ccc3c(c2)CCCO3)nc2cnc(NCC(F)(F)F)nc2n1-c1ccc(OC(F)F)cc1
[1]
  IC50: 0.0377 µM
[2]
  IC50: > 20 µM
[3]
  IC50: 1.67 µM
[4]
  Ratio IC50: >12

## Cc1nc2ccc(-c3nc4cnc(NCC(F)(F)F)nc4n(-c4ccc(OC(F)F)cc4)c3=O)cc2n1C
[1]
  IC50: 0.0644 µM
[2]
  IC50: 18.1 µM
[3]
  IC50: 0.53 µM
[4]
  Ratio IC50: 34.2

## COc1ccc(-c2nc3cnc(NCC(F)(F)F)nc3n(-c3ccc(OCC(F)F)cc3)c2=O)cc1
[1]
  IC50: > 1 µM

## COc1ccc(-c2nc3cnc(NCC(F)(F)F)nc3n(-c3ccc(C(F)(F)F)cc3)c2=O)cc1
[1]
  IC50: > 1 µM

## O=c1c(-c2ccc3nncn3c2)nc2ccc(C3CC3)cc2n1-c1ccc(OC(F)F)cc1
[1]
  IC50: 0.103 µM
[2]
  IC50: 14.9 µM
[3]
  IC50: 1.13 µM
[4]
  Ratio IC50: 13.2

## CC1=Nc2ccc(-c3nc4ccc(C5CC5)cc4n(-c4ccc(OC(F)F)cc4)c3=O)cc2C1(C)C
[1]
  IC50: 0.0892 µM
[2]
  IC50: 5.26 µM
[3]
  IC50: 0.76 µM
[4]
  Ratio IC50: 6.9

## Cn1cnc2ccc(-c3nc4cnc(NCC5CC5)nc4n(-c4ccc(OC(F)F)cc4)c3=O)cc21
[1]
  IC50: 0.613 µM
[2]
  IC50: 7.24 µM
[3]
  IC50: 2.96 µM
[4]
  Ratio IC50: 2.4

## Cn1cc2cc(-c3nc4cnc(NCC(F)(F)F)nc4n(-c4ccc(OC(F)F)cc4)c3=O)ccc2n1
[1]
  IC50: 0.0388 µM
[2]
  IC50: > 20 µM
[3]
  IC50: 1.25 µM
[4]
  Ratio IC50: >16

## COc1ccc2nc(-c3ccc4ncn(C)c4c3)c(=O)n(-c3ccc(OC(F)F)cc3)c2c1
[1]
  IC50: 0.089 µM
[2]
  IC50: > 20 µM
[3]
  IC50: 2.48 µM
[4]
  Ratio IC50: >8.1

## CC(C)n1cnc2ccc(-c3nc4ccc(C5CC5)cc4n(-c4ccc(OC(F)F)cc4)c3=O)cc21
[1]
  IC50: 0.138 µM
[2]
  IC50: 3.33 µM
[3]
  IC50: 0.37 µM
[4]
  Ratio IC50: 9

## COc1ccc(-c2nc3cnc(NCC(F)(F)F)nc3n(-c3ccc(OC(F)F)nc3)c2=O)cc1
[1]
  IC50: > 1 µM

## Cn1cnc2ccc(-c3nc4cnc(C5CC5)cc4n(-c4ccc(OC(F)F)cc4)c3=O)cc21
[1]
  IC50: 0.613 µM

## O=c1c(-c2ccc3ncn(C4CCCC4)c3c2)nc2cnc(NCC(F)(F)F)nc2n1-c1ccc(OC(F)F)cc1
[1]
  IC50: 0.108 µM and 0.0231 µM
[2]
  IC50: 9.74 µM
[3]
  IC50: 0.3 µM
[4]
  Ratio IC50: 32.5
